Assay results published in PMC7181660, “A novel specific PERK activator reduces toxicity and extends survival in Huntington's disease models” (Scientific Reports, 2020).

Columns and labels:
Test in all cases: biochemical
Format in all cases: biochemical
[1] = target: panel of 391 kinases (Homo sapiens, UniProt Q06187); settings: BTK, MK-28 1 µM, ATP 1 µM
[2] = target: panel of 391 kinases (Homo sapiens, UniProt P78362); settings: SRPK2, MK-28 1 µM, ATP 1 µM
[3] = target: panel of 391 kinases (Homo sapiens, UniProt Q52WX2); settings: SBK1, MK-28 1 µM, ATP 1 µM
[4] = target: panel of 391 kinases (Homo sapiens, UniProt Q8NG66); settings: NEK11, MK-28 1 µM, ATP 1 µM
[5] = target: panel of 391 kinases (Homo sapiens, UniProt O14733); settings: MKK7, MK-28 1 µM, ATP 1 µM
[6] = target: panel of 391 kinases (Homo sapiens, UniProt P17948); settings: FLT1/VEGFR1, MK-28 1 µM, ATP 1 µM
[7] = target: panel of 391 kinases (Homo sapiens, UniProt Q99759); settings: MEKK3, MK-28 1 µM, ATP 1 µM
[8] = target: panel of 391 kinases (Homo sapiens, UniProt Q14289); settings: PYK2, MK-28 1 µM, ATP 1 µM
[9] = target: panel of 391 kinases (Homo sapiens, UniProt Q15835); settings: GRK1, MK-28 1 µM, ATP 1 µM
[10] = target: panel of 391 kinases (Homo sapiens, UniProt O15075); settings: DCAMKL1, MK-28 1 µM, ATP 1 µM
[11] = target: panel of 391 kinases (Homo sapiens, UniProt Q8WXR4); settings: MYO3b, MK-28 1 µM, ATP 1 µM
[12] = target: panel of 391 kinases (Homo sapiens, UniProt Q06418); settings: TYRO3/SKY, MK-28 1 µM, ATP 1 µM
[13] = target: panel of 391 kinases (Homo sapiens, UniProt P04626); settings: ERBB2/HER2, MK-28 1 µM, ATP 1 µM
[14] = target: panel of 391 kinases (Homo sapiens, UniProt Q15119); settings: kinase PDK2/PDHK2, compound at 1 µM, single dose in duplicates, 1 µM ATP
[15] = target: panel of 391 kinases (Homo sapiens, UniProt P54753); settings: EPHB3, MK-28 1 µM, ATP 1 µM
[16] = target: panel of 391 kinases (Homo sapiens, UniProt Q9UEE5); settings: DRAK1/STK17A, MK-28 1 µM, ATP 1 µM
[17] = target: panel of 391 kinases (Homo sapiens, UniProt Q09013); settings: DMPK, MK-28 1 µM, ATP 1 µM
[18] = target: panel of 391 kinases (Homo sapiens, UniProt Q9UQM7); settings: CAMK2a, MK-28 1 µM, ATP 1 µM
[19] = target: panel of 391 kinases (Homo sapiens, UniProt O75385); settings: ULK1, MK-28 1 µM, ATP 1 µM
[20] = target: panel of 391 kinases (Homo sapiens, UniProt Q15831); settings: LKB1, MK-28 1 µM, ATP 1 µM
[21] = target: panel of 391 kinases (Homo sapiens, UniProt Q96S53); settings: TESK2, MK-28 1 µM, ATP 1 µM
[22] = target: panel of 391 kinases (Homo sapiens, UniProt Q8TF76); settings: Haspin, MK-28 1 µM, ATP 1 µM
[23] = target: panel of 391 kinases (Homo sapiens, UniProt Q9UKI8); settings: TLK1, MK-28 1 µM, ATP 1 µM
[24] = target: panel of 391 kinases (Homo sapiens, UniProt P49841); settings: GSK3b, MK-28 1 µM, ATP 1 µM
[25] = target: panel of 391 kinases (Homo sapiens, UniProt Q13164); settings: ERK5/MAPK7, MK-28 1 µM, ATP 1 µM
[26] = target: panel of 391 kinases (Homo sapiens, UniProt Q9UEW8); settings: STK39/STLK3, MK-28 1 µM, ATP 1 µM
[27] = read-out: % Enzyme Activity (relative to DMSO controls)

## CN(/N=C\c1ccc(O)c(O)c1)c1nc(-c2ccccc2)cc(-c2ccccc2)n1 [MK-28]
[1]
  % Enzyme Activity (relative to DMSO controls): 85.19%
[1]; [27]
  remaining activity at 1 µM: 85.4%
[2]
  % Enzyme Activity (relative to DMSO controls): 102.82%
[2]; [27]
  remaining activity at 1 µM: 106%
[3]
  % Enzyme Activity (relative to DMSO controls): 97.75%
[3]; [27]
  remaining activity at 1 µM: 97.8%
[4]
  % Enzyme Activity (relative to DMSO controls): 90.54%
[4]; [27]
  remaining activity at 1 µM: 93.3%
[5]
  % Enzyme Activity (relative to DMSO controls): 95.27%
[5]; [27]
  remaining activity at 1 µM: 96.9%
[6]
  % Enzyme Activity (relative to DMSO controls): 84.43%
[6]; [27]
  remaining activity at 1 µM: 84.8%
[7]
  % Enzyme Activity (relative to DMSO controls): 87.80%
[7]; [27]
  remaining activity at 1 µM: 93.8%
[8]
  % Enzyme Activity (relative to DMSO controls): 101.51%
[8]; [27]
  remaining activity at 1 µM: 103%
[9]
  % Enzyme Activity (relative to DMSO controls): 96.61%
[9]; [27]
  remaining activity at 1 µM: 102%
[10]
  % Enzyme Activity (relative to DMSO controls): 110.18%
[10]; [27]
  remaining activity at 1 µM: 111%
[11]
  % Enzyme Activity (relative to DMSO controls): 107.45%
[11]; [27]
  remaining activity at 1 µM: 113%
[12]
  % Enzyme Activity (relative to DMSO controls): 99.89%
[12]; [27]
  remaining activity at 1 µM: 100%
[13]
  % Enzyme Activity (relative to DMSO controls): 98.41%
[13]; [27]
  remaining activity at 1 µM: 99.3%
[14]
  % Enzyme Activity (relative to DMSO controls): 99.55%
[14]; [27]
  remaining activity at 1 µM: 103%
[15]
  % Enzyme Activity (relative to DMSO controls): 97.56%
[15]; [27]
  remaining activity at 1 µM: 99.2%
[16]
  % Enzyme Activity (relative to DMSO controls): 99.69%
[16]; [27]
  remaining activity at 1 µM: 102%
[17]
  % Enzyme Activity (relative to DMSO controls): 103.01%
[17]; [27]
  remaining activity at 1 µM: 104%
[18]
  % Enzyme Activity (relative to DMSO controls): 100.97%
[18]; [27]
  remaining activity at 1 µM: 103%
[19]
  % Enzyme Activity (relative to DMSO controls): 97.64%
[19]; [27]
  remaining activity at 1 µM: 100%
[20]
  % Enzyme Activity (relative to DMSO controls): 90.38%
[20]; [27]
  remaining activity at 1 µM: 97.4%
[21]
  % Enzyme Activity (relative to DMSO controls): 99.48%
[21]; [27]
  remaining activity at 1 µM: 101%
[22]
  % Enzyme Activity (relative to DMSO controls): 102.02%
[22]; [27]
  remaining activity at 1 µM: 116%
[23]
  % Enzyme Activity (relative to DMSO controls): 93.00%
[23]; [27]
  remaining activity at 1 µM: 96.5%
[24]
  % Enzyme Activity (relative to DMSO controls): 63.98%
[24]; [27]
  remaining activity at 1 µM: 70.3%
[25]
  % Enzyme Activity (relative to DMSO controls): 118.22%
[25]; [27]
  remaining activity at 1 µM: 119%
[26]
  % Enzyme Activity (relative to DMSO controls): 106.05%
[26]; [27]
  remaining activity at 1 µM: 108%
